From US20100069341A1, “TETRAHYDRO-PYRANOPYRAZOLE CANNABINOID MODULATORS” (priority 2005, published 2010)
Read-outs that look alike come from different tables or passages of the source.

Legend:
[1] = biological target: T1, Cannabinoid CB1 Receptor (Homo sapiens, UniProt P21554); test: Binding assay, cannabinoid CB1 receptor ([3H]-CP-55,940 displacement, SK-N-MC cell membranes); details: for inhibition at 0.2 µM: read-out: Cannabinoid CB1 Receptor Binding, percent inhibition
T1 construct: expressed in transfected cells; semi-purified membrane pellet
T1 sequence (P21554 whole entry): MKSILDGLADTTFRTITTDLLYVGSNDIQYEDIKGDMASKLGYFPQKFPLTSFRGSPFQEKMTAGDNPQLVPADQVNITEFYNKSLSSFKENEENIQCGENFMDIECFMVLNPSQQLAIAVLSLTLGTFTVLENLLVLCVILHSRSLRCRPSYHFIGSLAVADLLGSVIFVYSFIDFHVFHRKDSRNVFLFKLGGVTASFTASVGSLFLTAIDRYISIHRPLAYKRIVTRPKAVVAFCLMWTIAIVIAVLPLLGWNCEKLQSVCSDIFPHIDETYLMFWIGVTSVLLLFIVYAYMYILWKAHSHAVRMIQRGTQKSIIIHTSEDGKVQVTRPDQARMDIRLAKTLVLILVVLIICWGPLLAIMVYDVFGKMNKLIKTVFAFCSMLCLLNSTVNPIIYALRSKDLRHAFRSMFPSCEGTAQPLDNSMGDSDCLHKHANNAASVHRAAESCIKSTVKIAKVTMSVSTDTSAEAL

[2] = biological target: T2, Cannabinoid CB2 Receptor (Homo sapiens, UniProt P34972); test: Binding assay, cannabinoid CB2 receptor ([3H]-CP-55,940 displacement, SK-N-MC cell membranes); details: test concentration of 0.2 μM, human CB2 in SK-N-MC membranes; for inhibition at 0.2 µM: read-out: Cannabinoid CB2 Receptor Binding, percent inhibition
T2 construct: expressed in transfected cells; semi-purified membrane pellet
T2 sequence (P34972 whole entry): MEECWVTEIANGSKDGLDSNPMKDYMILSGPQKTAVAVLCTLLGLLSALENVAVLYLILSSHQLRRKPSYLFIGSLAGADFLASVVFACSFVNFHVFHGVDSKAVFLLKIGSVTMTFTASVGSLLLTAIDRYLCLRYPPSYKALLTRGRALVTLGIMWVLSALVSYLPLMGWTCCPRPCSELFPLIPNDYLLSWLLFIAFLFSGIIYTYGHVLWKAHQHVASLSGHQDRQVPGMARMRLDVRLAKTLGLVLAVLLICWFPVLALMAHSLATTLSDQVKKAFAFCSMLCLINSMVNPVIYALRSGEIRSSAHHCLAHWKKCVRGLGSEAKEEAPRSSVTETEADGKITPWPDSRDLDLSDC
How it was run: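 Membranes from SK-N-MC cells stably expressing human CB2 were incubated 90 min at 30 °C with 0.2 nM [3H]-CP-55,940 in Tris buffer, pH 7.5, with BSA; 10 uM WIN 55,212 defined non-specific binding. Filter-bound counts gave IC50 by linear regression, or % inhibition at 0.2 μM.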

[3] = test concentration of 0.2 μM, human CB1 in SK-N-MC membranes

| Molecule | inhibition at 0.2 µM [2] [%] | inhibition at 0.2 µM [1, 3] [%] | also measured |
| --- | --- | --- | --- |
| C[C@H](NC(=O)c1nn(-c2ccc(Cl)cc2Cl)c2c1COC/C2=C\c1ccc(Cl)o1)C1CCCCC1 [Cpd 63, (7Z)-7-(5-chloro-furan-2-ylmethylene)-1-(2,4-dichloro-phenyl)-1,4,6,7-tetrahydro-pyrano[4,3-c]pyrazole-3-carboxylic acid [(S)-1-cyclohexyl-ethyl]-amide] | 10 |  | inhibition at 0.2 µM [1]: 25% |
| O=C(NN1CCCCC1)c1nn(-c2ccc(Cl)cc2Cl)c2c1COC/C2=C\c1ccc(Cl)o1 [Cpd 64, (7Z)-7-(5-chloro-furan-2-ylmethylene)-1-(2,4-dichloro-phenyl)-1,4,6,7-tetrahydro-pyrano[4,3-c]pyrazole-3-carboxylic acid piperidin-1-ylamide] | 12 | 62 |  |
| O=C(NN1CCCCCC1)c1nn(-c2ccc(Cl)cc2Cl)c2c1COC/C2=C\c1ccc(Cl)o1 [Cpd 65, (7Z)-7-(5-chloro-furan-2-ylmethylene)-1-(2,4-dichloro-phenyl)-1,4,6,7-tetrahydro-pyrano[4,3-c]pyrazole-3-carboxylic acid azepan-1-ylamide] | 9 | 71 | IC50 [1]: 70 nM |
| C[C@@H](NC(=O)c1nn(-c2ccc(Cl)cc2Cl)c2c1COC/C2=C\c1ccc(Cl)o1)c1ccccn1 [Cpd 66, (7Z)-7-(5-chloro-furan-2-ylmethylene)-1-(2,4-dichloro-phenyl)-1,4,6,7-tetrahydro-pyrano[4,3-c]pyrazole-3-carboxylic acid [(R)-1-pyridin-2-yl-ethyl]-amide] | 10 | 58 |  |
| CC(NC(=O)c1nn(-c2ccc(Cl)cc2Cl)c2c1COC/C2=C\c1ccc(Cl)o1)c1ccccn1 (stereo not drawn) [Cpd 67, (7Z)-7-(5-chloro-furan-2-ylmethylene)-1-(2,4-dichloro-phenyl)-1,4,6,7-tetrahydro-pyrano[4,3-c]pyrazole-3-carboxylic acid (1-pyridin-2-yl-ethyl)-amide] | 7 | 40 |  |
| CC1CCCC(C)N1NC(=O)c1nn(-c2ccc(Cl)cc2Cl)c2c1COC/C2=C\c1ccc(Cl)o1 (stereo not drawn) [Cpd 68, (7Z)-7-(5-chloro-furan-2-ylmethylene)-1-(2,4-dichloro-phenyl)-1,4,6,7-tetrahydro-pyrano[4,3-c]pyrazole-3-carboxylic acid (2,6-dimethyl-piperidin-1-yl)-amide] | 22 | 38 |  |
| C[C@@H](NC(=O)c1nn(-c2ccc(Cl)cc2Cl)c2c1COC/C2=C\c1ccc(Cl)o1)c1ccccc1 [Cpd 69, (7Z)-7-(5-chloro-furan-2-ylmethylene)-1-(2,4-dichloro-phenyl)-1,4,6,7-tetrahydro-pyrano[4,3-c]pyrazole-3-carboxylic acid [(R)-1-phenyl-ethyl]-amide] | 15 | 73 | IC50 [1]: 50 nM |
| C[C@H](NC(=O)c1nn(-c2ccc(Cl)cc2Cl)c2c1COC/C2=C\c1ccc(Cl)o1)c1ccccc1 [Cpd 70, (7Z)-7-(5-chloro-furan-2-ylmethylene)-1-(2,4-dichloro-phenyl)-1,4,6,7-tetrahydro-pyrano[4,3-c]pyrazole-3-carboxylic acid [(S)-1-phenyl-ethyl]-amide] | 15 | 41 |  |
| O=C(NN1CC2CCCC2C1)c1nn(-c2ccc(Cl)cc2Cl)c2c1COC/C2=C\c1ccc(Cl)o1 (stereo not drawn) [Cpd 71, (7Z)-7-(5-chloro-furan-2-ylmethylene)-1-(2,4-dichloro-phenyl)-1,4,6,7-tetrahydro-pyrano[4,3-c]pyrazole-3-carboxylic acid (hexahydro-cyclopenta[c]pyrrol-2-yl)-amide] | 17 | 71 | IC50 [1]: 40 nM |
| O=C(NN1CCCC1)c1nn(-c2ccc(Cl)cc2Cl)c2c1COC/C2=C\c1ccc(Cl)o1 [Cpd 72, (7Z)-7-(5-chloro-furan-2-ylmethylene)-1-(2,4-dichloro-phenyl)-1,4,6,7-tetrahydro-pyrano[4,3-c]pyrazole-3-carboxylic acid pyrrolidin-1-ylamide] | 8 | 48 |  |
| COC[C@@H]1CCCN1NC(=O)c1nn(-c2ccc(Cl)cc2Cl)c2c1COC/C2=C\c1ccc(Cl)s1 [Cpd 73, (7Z)-7-(5-chloro-thiophen-2-ylmethylene)-1-(2,4-dichloro-phenyl)-1,4,6,7-tetrahydro-pyrano[4,3-c]pyrazole-3-carboxylic acid [(2S)-2-methoxymethyl-pyrrolidin-1-yl]-amide] | 11 | 57 |  |
| COC[C@H]1CCCN1NC(=O)c1nn(-c2ccc(Cl)cc2Cl)c2c1COC/C2=C\c1ccc(Cl)s1 [Cpd 74, (7Z)-7-(5-chloro-thiophen-2-ylmethylene)-1-(2,4-dichloro-phenyl)-1,4,6,7-tetrahydro-pyrano[4,3-c]pyrazole-3-carboxylic acid [(2R)-2-methoxymethyl-pyrrolidin-1-yl]-amide] | 12 | 65 |  |
| COC[C@H]1CCCN1NC(=O)c1nn(-c2ccc(Cl)cc2Cl)c2c1COC/C2=C\c1ccc(F)cc1 [Cpd 75, (7Z)-1-(2,4-dichloro-phenyl)-7-(4-fluoro-benzylidene)-1,4,6,7-tetrahydro-pyrano[4,3-c]pyrazole-3-carboxylic acid [(2R)-2-methoxymethyl-pyrroldin-1-yl]-amide] | 15 | 68 |  |
| (7Z)-7-(5-chloro-thiophen-2-ylmethylene)-1-(2,4-dichloro-phenyl)-1,4,6,7-tetrahydro-pyrano[4,3-c]pyrazole-3-carboxylic acid [(2S)-2-benzyl-pentyl]-amide [Cpd 59] |  |  | Cannabinoid CB1 Receptor Binding, percent inhibition [1, 3]: 38%; Cannabinoid CB2 Receptor Binding, percent inhibition [2]: 17% |
| (7Z)-azepan-1-yl-[1-(2,4-dichloro-phenyl)-7-(4-fluoro-benzylidene)-1,4,6,7-tetrahydro-pyrano[4,3-c]pyrazol-3-yl]-methanone [Cpd 28] |  |  | IC50 ([1]; human CB1 in SK-N-MC membranes, radioligand CP-55,940 0.2 nM, calculated by linear regression, read-out: Cannabinoid CB1 Receptor Binding, IC50 binding value): 9 nM; Cannabinoid CB1 Receptor Binding, percent inhibition [1, 3]: 88%; Cannabinoid CB2 Receptor Binding, percent inhibition [2]: 10% |
| azepan-1-yl-[1-(2,4-dichloro-phenyl)-7-(4-fluoro-benzyl)-1,4,6,7-tetrahydro-pyrano[4,3-c]pyrazol-3-yl]-methanone [Cpd 25] |  |  | Cannabinoid CB1 Receptor Binding, percent inhibition [1, 3]: 50%; Cannabinoid CB2 Receptor Binding, percent inhibition [2]: 0% |
